Reference: patent publication US20080003438A1, “Heterocyclic siloxanes for use in biocidal coatings and materials” (Auburn University, priority 2002, published 2008)

Tests used:
Staphylococcus aureus = experiment: Antimicrobial activity of cotton textiles coated with acyclic silane; type: cell-based
Description: Cotton textiles were coated with 3-aminopropyltriethoxysilane by exposure to aqueous solutions of 5% of this compound, followed by curing the woven fabric at 100° C. for 60 minutes in air, or by use of a household dryer on high setting for 30 minutes. Swatches of the treated fabric were charged with chlorine, and then challenged with suspensions of Staphylococcus aureus; enumeration of recovery was accomplished using the methods described in Example 11. Chlorine contents of charged oven-cured textiles ranged up to 5000 ppm (5 mg per g of material) immediately after drying, but diminished to 2300 ppm in approximately 14 days at 20° C. Chlorine concentrations in dryer-prepared swatches were never higher than 2500 ppm, even when fresh. Reductions of viable organisms in freshly chlorinated oven-dried swatches were in excess of 4 logs, after as little as 15 minutes of contact. Longer contact times (30 minutes) were required to reach this level of efficacy in dryer-cured textiles.

[1] = Chlorine loading of coated, chlorinated surfaces by iodometric/thiosulfate titration; type: physicochemical; details: for chlorine content of charged textile: oven-cured; for chlorine loading on coated cotton swatches: chlorinated with 5% CLOROX at ambient temperature for 45 minutes
Description: Swatches of Style 400 Bleached 100% Cotton Print Cloth (Testfabrics, Inc.) were treated with 3-triethoxysilylpropyl-5,5-dimethylhydantoin, prepared as described in Example 1, in the following manner. A treatment bath was prepared containing 5.0 g of 3-triethoxysilylpropyl-5,5-dimethylhydantoin, 3.0 g of potassium thiocyanate, 50 mL of ethanol, and 50 mL of water. After 1 hour of equilibration of the bath mixture, the cotton swatches were soaked in the bath for 10 min. After partially drying in air at ambient temperature, the swatches were cured for 1 hour at 95° C. The swatches were then soaked in a 0.5% liquid detergent solution for 15 min, rinsed with tap water, and allowed to dry in air at ambient temperature. […] The swatches were stored in a vacuum desiccator until use.
The siloxane polymer described above was coated onto 100% cotton fabric. This was accomplished by soaking swatches of the material for about 2 minutes at ambient temperature in a bath containing 5 g of the polysiloxane, 70 mL of ethanol, and 40 mL of water. The swatches were cured at 130° C. in air for 20 minutes, then soaked in 1.5% liquid detergent for 15 minutes at ambient temperature, and then rinsed thoroughly with water. […] An iodometric/thiosulfate titration indicated a chlorine loading on the cotton material of about 0.42%.
Finally, a wash test was performed on swatches of cotton containing the monomer 3-triethoxysilylpropyl-5,5-dimethylhydantoin coating and the polysiloxane coating, each chlorinated and unchlorinated, for comparison purposes. Two treatment baths were prepared, one containing an 8% solution of 3-triethoxysilylpropyl-5,5-dimethylhydantoin in a 50% solution of ethanol in water, the other containing an 8% solution of siloxane polymer prepared as described above in a 66.7% solution of ethanol in water. Identical cotton swatches were soaked in the two baths for 2.5 minutes at ambient temperature, cured in air at 130° C. for 20 minutes, soaked in 1.5% liquid detergent at ambient temperature for 15 minutes, rinsed thoroughly with water, and dried in air at 50° C. for 30 minutes. Then one-half of the swatches of each type were chlorinated by soaking them in 5% CLOROX at ambient temperature for 45 minutes. These chlorinated samples were rinsed thoroughly with water and dried in air at 50° C. for 30 minutes to remove all occluded free chlorine. Iodometric/thiosulfate titrations were performed on representative samples to determine initial chlorine loadings. The average chlorine loading for the silane monomer-coated samples was 0.61%; for the siloxane polymer-coated samples, the average chlorine loading was 0.40%. Then all types of coated swatches were subjected to laundry washing cycles using AATCC Test Method 61 (Test 2A Procedure). Samples were evaluated after 5, 10, and 50 washing cycles for retention of the coatings. Those samples not chlorinated before washing were chlorinated by the procedure described above in order to assess how much chlorine could be loaded after variable numbers of washing cycles. Those chlorinated before washing were divided into two groups with half being assessed for chlorine loading without rechlorination, the other half being rechlorinated and then assessed for chlorine loading. Three observations are clearly evident from the data in Table 3. First, both the silane and the siloxane coatings are partially lost upon successive washings. Second, prechlorination reduces the rate of loss, probably due to increasing the hydrophobicity of the surface, thus reducing the rate of hydrolysis loss of the siloxane coatings. Third, the siloxane coating, which is not chlorinated to as high a level as the silane one upon initial chlorination, is lost at a slower rate than is the silane coating. For all of the coatings, at least partial biocidal efficacy would be regenerated upon rechlorination after 50 washing cycles. […]

S. aureus (ATCC 6538) = experiment: Challenge of treated cotton swatches, modified AATCC Method 100; type: cell-based; details: treated cotton swatches, at 30 minutes
Description: (§1) Treated cotton swatches were challenged with S. aureus (ATCC 6538) and Escherichia coli (ATCC 2666) at a concentration of between 10^8 and 10^9 CFU/mL in pH 7 phosphate buffer solution using a modified version of AATCC Method 100. The swatches were quenched with 0.02 N sodium thiosulfate solution at contact times of 10, 30, 60, and 120 min. Serial dilutions of the solutions contacting the swatches were plated on nutrient agar, incubated for 48 hours at 37° C., and plate counts were made to determine the presence of viable bacteria. […] The control sample (cotton soaked in 10% bleach, rinsed, and dried) gave only a 0.4 log reduction at 30 minutes. […] The control sample (cotton soaked in 10% bleach, rinsed, and dried) gave a 0 log reduction at 120 minutes.

[2] = system: Escherichia coli (ATCC 2666); experiment: as above; type: cell-based; details: contact time interval 60-120 minutes
Description: as §1

[3] = system: S. aureus bacteria (ATCC 6538); experiment: Biocidal efficacy of chlorinated silane compound in water solution; type: cell-based; details: 100.8 mg/L solution, 11.02 mg/L total chlorine, chlorine-demand-free water pH 7, all contact times 5, 10, 30, 60 min, ambient temperature
Description: A 100.8 mg/L solution of the chlorinated silane compound, prepared as described above, containing 11.02 mg/L total chlorine content in chlorine-demand-free water at pH 7 was challenged with S. aureus bacteria (ATCC 6538) for contact times of 5, 10, 30, and 60 min at ambient temperature. Following the contact with the bacteria, further disinfectant action was quenched by adding 0.02 N sodium thiosulfate. Serial dilutions were then plated onto trypticase soy agar, and colony counts were made after 48 hours of incubation at 37° C. No growth was detected on the plates indicating a complete inactivation (>4.9 logs) at all of the contact times. Thus the chlorinated silane compound is biocidal under the conditions tested. Neither lower contact times, nor lower concentrations, were evaluated.

CCO[Si](CCCN)(OCC)OCC [3-aminopropyltriethoxysilane]
contact time required to reach in excess of 4 logs reduction (Staphylococcus aureus; dryer-cured cotton textiles): 30 minutes
reduction of viable organisms (Staphylococcus aureus; freshly chlorinated oven-dried cotton swatches, 15 minutes of contact): > 4 logs
chlorine concentration of charged textile ([1]; cotton, dryer-prepared swatches, even when fresh): ≤ 2500 ppm
chlorine content of charged textile ([1]; cotton, after approximately 14 days at 20° C.): 2300 ppm
chlorine content of charged textile ([1]; cotton, immediately after drying): up to 5000 ppm

CCCCCCCCCCCCCCCCCC[N+](C)(C)CCC[Si](OC)(OC)OC.[Cl-] [quaternary ammonium salt, dimethyloctadecyltrimethoxysilylpropylammonium chloride, reference compound]
log reduction of S. aureus (S. aureus (ATCC 6538)): 1.8 log
log reduction of E. coli [2]: 2.5 logs

CCO[Si](C)(CCCN1C(=O)NC(C)(C)C1=O)OCC [3-diethoxymethylsilylpropyl-5,5-dimethylhydantoin]
chlorine loading on coated cotton swatches ([1]; cotton): 0.733%

CO[Si](CCCN1C(=O)N(Cl)C(C)(C)C1=O)(OC)OC [chlorinated silane compound, 1-chloro-3-trimethoxysilylpropyl-5,5-dimethylhydantoin]
complete inactivation of S. aureus [3]: > 4.9 logs

CCO[Si](CCCNCCN1C(=O)NC(C)(C)C1=O)(OCC)OCC.Cl [3-[2′-(3′-triethoxysilylpropyl)aminoethyl]-5,5-dimethylhydantoin hydrochloride]
chlorine loading ([1]; cotton swatches, 5% CLOROX 5 minutes): 0.44%
chlorine loading ([1]; sand (Ottawa Sand Standard, 20-30 mesh), 50% CLOROX 15 minutes): 0.11%

CCO[Si](CCCN1C(=O)C(C)(C)NC1(C)C)(OCC)OCC [3-triethoxysilylpropyl-2,2,5,5-tetramethylimidazolidin-4-one]
chlorine loading on coated cotton swatches ([1]; cotton): 0.114%
